This note sets out measurements from patent US10517863B2, “Trilobine and its natural analogs for use as a drug” (PIERRE FABRE MEDICAMENT, priority 2015, dated 2019).

In general, IC50 refers to the point on the concentration scale where inhibition reaches its midpoint. Lower therefore signals greater potency. In general, inhibition refers to the relative decrease from the control value, in per cent.

Test [1] deals with P16 expression in colon cancer cells HCT116. Put plainly: P16 reexpression by RT-qPCR. In kind it is cell-based, human. The conditions noted are these: at 100 nM, at 3 days.
Test [2] has as its system panel of cancer cell lines. Nature of the test: Anti-proliferative activity (ATPLite), whole panel. The test is classed as cell-based. The conditions noted are these: Homo sapiens; range over the panel. Here is the method: To measure the anti-proliferative properties of tested molecules, 2×10^4 cells are seeded at day 0 in a 96 wells plate. The compounds to be tested, stored at −20° C. as 10^−2 M stock solution in 100% DMSO, are freshly diluted on day 1 in the cell medium, before adding a dose range of 3.2 nM to 10 μM to the cells. The cell viability is assessed using the ATPLite kit from Perkin (ATPlite 1 Step Luminescence Assay System, ref 3016739), following the provider instructions. The raw data are analyzed with GraphPad Prism software (v4.03) to generate IC50 values corresponding to the compound concentrations giving 50% reduction in cell viability. The values presented are the mean results of at least two independent experiments. The standard errors are indicated.
(In ATP-based viability assays light output follows the ATP content of the culture.)

Test [3] concerns the target T1, human C-terminal DNMT3A (a.a. 623-908) (Homo sapiens, UniProt Q9Y6K1).
T1 construct: The human C-terminal DNMT3A (a.a. 623-908); made in house
Nature of the test: hDNMT3A restriction-based fluorescence assay. The test is classed as biochemical. The conditions noted are these: read-out: hDNMT 3A inhibition, Inhibition (%). The source says:
hDNMT3A enzyme inhibition was adapted from the restriction-based fluorescence assay protocol as described in the literature (Ceccaldi et al. ChemBioChem 2011, 12, 1337-1345). Briefly, a 5′-labelled biotin oligonucleotide is hybridized to its complementary strand labelled with 6-carboxyfluorescein at the 3′-end into a 384 well microplate (black Optiplates; Perkin Elmer) pre-coated with avidin. The duplex contains a unique CpG site overlapping with a restriction site of a methylation sensitive restriction enzyme. The human C-terminal DNMT3A (a.a. 623-908), produced as described in the literature (Gros et al. Nucl. Acids Res. 2013, 41(19):e185), was added in each well (200 ng/well) and mixed with the chemical compounds at desired concentrations and freshly prepared AdoMet (20 μM final concentration) to start the reaction in a total volume of 50 μL. After 1 hour incubation at 37° C. each well were washed three times with PBS, Tween-20 0.05%, NaCl (500 mM) and three more times with PBST. Specific fluorescent signals were detected with the methylation-sensitive restriction enzyme HpyCH4IV (NEB) as described and measured on a Perkin Elmer Envision detector. The percentage of inhibition is reported. The formula used to calculate the percentage of inhibition is [(X−Y)/X]×100, where X is the signal determined in the absence of the inhibitor and Y is the signal obtained in the presence of the inhibitor. The concentration at which 50% of efficacy of inhibition is observed (EC50) was determined by analysis of a concentration range of the tested compound in triplicates. The non-linear regression fittings with sigmoidal dose-response (variable slope) were performed with GraphPad Prism 4.03 (GraphPad Software).

Test [4] deals with P16 promoter in colon cancer cells HCT116. Nature of the test: P16 (CDKN2A) promoter demethylation, COBRA. In kind it is cell-based, human. The conditions noted are these: at 0.1 μM. Here is the method: Cancer cell lines (colon HCT116 or leukaemia KG1) were treated with the compounds as indicated in the Data Tables and then analysed as following.
DNA was isolated from cultured cells using the DNeasy Blood and Tissue Kit according to the manufacturer's specifications (Qiagen). DNA bisulphite conversion was performed on 2 μg of DNA using the EZ DNA Methylation-Gold Kit according to the manufacturer's specifications (Zymo Research) and bisulfited DNA was eluted with 10 μL of water. Two different techniques were used to analyse the DNA methylation profile after bisulfite conversion of genomic DNA: (A) cloning and sequencing or (B) COBRA. The primers for each promoter are specified in the Table 3.
This technique is a variation of bisulfite sequencing, and combines bisulfite conversion based polymerase chain reaction with restriction digestion. DNA methylation levels are easily and quickly measured without the need for laborious and costing more time sub-cloning and sequencing, as with bisulfite sequencing.
DNA amplification was set up with 100 ng eluted bisulfited DNA in 50 μl PCR reaction containing 1×PCR buffer, 2.5 mM MgCl2, 0.3 mM dNTPs, 400 nM each primer and 1.25 units EpiTaq HS (Takara) on C1000 Touch™ thermal cycler by 98° C. for 10 sec, 55° C. for 30 sec, 72° C. for 30 sec×40 cycles. 20 μL of PCR amplicons were digested in 30 μL by 2 units of BsiEI at 60° C. for 90 min. DNA fragments were migrated by 2% agarose gel electrophoresis and each band was quantified by Image Lab Software v2.0 (BioRad Laboratories).

T1 sequence (Q9Y6K1 627-912): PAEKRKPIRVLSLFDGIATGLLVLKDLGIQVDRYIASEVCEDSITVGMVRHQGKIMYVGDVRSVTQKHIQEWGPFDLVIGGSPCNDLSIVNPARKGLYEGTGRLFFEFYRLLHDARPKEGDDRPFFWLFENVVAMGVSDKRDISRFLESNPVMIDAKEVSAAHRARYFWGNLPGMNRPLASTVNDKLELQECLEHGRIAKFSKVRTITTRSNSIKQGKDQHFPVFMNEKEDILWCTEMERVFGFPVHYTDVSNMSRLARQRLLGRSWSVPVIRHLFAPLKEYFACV

For `COc1ccc2cc1Oc1ccc(cc1)C[C@@H]1NCCc3cc(OC)c4c(c31)Oc1cc3c(cc1O4)CCN(C)[C@H]3C2` [Compound 1, Trilobine], the “Rexpression (RT qPCR) P16/HCT116 expression fold to non-treated cells” value in test [1] worked out at 5.0 ± 2.14 fold. Besides, the IC50 in test [2] is 0.9 to 6.8 µM. Also, the inhibition at 10 µM in test [3] (10 μM) amounted to 78%. Besides, the inhibition at 32 µM in test [3] (32 μM) was 94%. Further, the “Demethylation (COBRA) P16/HCT116” value in test [4] (after 3 days) is on record as −37% after 3 days; in test [4] (after 7 days), −52% after 7 days; in test [4] (after 21 days) it was −53% after 21 days.
